Consider six compounds from patent publication US4335249A, “Herbicidal diphenyl ethers, sulfides, sulfoxides and sulfones” (Rohm and Haas Company, priority 1976, dated 1982).

Holding throughout (assay type): in vivo
The subject of assay [1] is downybrome (Bromus tectorum). As to the kind of experiment: Postemergence herbicidal activity, downybrome. To be noted: Post, 2 lb/A; for pest or weed control at 2241.7 g/ha: Bromus tectorum, post-emergence, 336 h. On the procedure:
(§1) Using the procedure described below, compounds of the invention are evaluated for control of several of the following plant species:
(§2) The following est procedure is employed. Seeds of selected crops and weeds are planted in soil in flats. For preemergence tests, the flats are treated with the test compound immediately after the planting. For postemergence tests, the seeds are allowed to germinate, and after two weeks the flats are treated with the test compound. The compound to be evaluated is dissolved in acetone, diluted with water, and sprayed over the flats using a carrier volume equivalent to 50 gallons per acre at the rate of application (pounds per acre, lb/A.) specified in the tables. About two weeks after the application of the test compound, the state of growth of the plants is observed and the phytotoxic effect of the compound is evaluated. Tables III and IV give the average percent control achieved by test compounds in terms of the percent of the plants which are killed by the compounds.

Assay [2] relates to barnyardgrass (Echinochloa crusgalli). Put plainly: Preemergence herbicidal activity, barnyardgrass. The conditions noted are these: Echinochloa crus-galli, pre-emergence, 336 h; Pre, 2 lb/A. The procedure:
as §1
(§3) The following est procedure is employed. Seeds of selected crops and weeds are planted in soil in flats. For preemergence tests, the flats are treated with the test compound immediately after the planting. For postemergence tests, the seeds are allowed to germinate, and after two weeks the flats are treated with the test compound. The compound to be evaluated is dissolved in acetone, diluted with water, and sprayed over the flats using a carrier volume equivalent to 50 gallons per acre at the rate of application (pounds per acre, lb/A.) specified in the tables.

Assay [3] relates to velvetleaf (Abutilon theophrasti). Put plainly: Preemergence herbicidal activity, velvetleaf. The conditions noted are these: Abutilon theophrasti, pre-emergence, 336 h; Pre, 2 lb/A. On the procedure:
as §1, §2

The subject of assay [4] is marigold (Tagetes spp.). Put plainly: Preemergence herbicidal activity, marigold. The conditions noted are these: pre-emergence, 336 h, 2 lb/A. On the procedure:
as §1, §2

The subject of assay [5] is downybrome (Bromus tectorum). Put plainly: Preemergence herbicidal activity, downybrome. The conditions noted are these: Pre, 2 lb/A; for pest or weed control at 2241.7 g/ha: Bromus tectorum, pre-emergence, 336 h. On the procedure: as §1, §2
The subject of assay [6] is yellow nutsedge (Cyperus esculentus). As to the kind of experiment: Preemergence herbicidal activity, yellow nutsedge. The conditions noted are these: Cyperus, pre-emergence, 336 h, 2 lb/A. The procedure: as §1, §2
The test system of assay [7] is foxtail (Setaria spp.). Put plainly: Postemergence herbicidal activity, foxtail. The conditions noted are these: Setaria, post-emergence, 336 h, Post, 2 lb/A. The procedure:
as §1, §2

Assay [8] concerns cocklebur (Xanthium pensylvanicum). As to the kind of experiment: Preemergence herbicidal activity, cocklebur. The conditions noted are these: Xanthium strumarium, pre-emergence, 336 h, 2 lb/A. The procedure: as §1, §2
Assay [9] has as its system foxtail (Setaria spp.). Put plainly: Preemergence herbicidal activity, foxtail. The conditions noted are these: Setaria, pre-emergence, 336 h; Pre, 2 lb/A. The procedure:
as §1, §2

The subject of assay [10] is marigold (Tagetes spp.). As to the kind of experiment: Postemergence herbicidal activity, marigold. The conditions noted are these: 2 lb/A; for pest or weed control at 2241.7 g/ha: post-emergence, 336 h. The procedure: as §1, §2
Assay [11] relates to morningglory (Ipomoca spp.). As to the kind of experiment: Postemergence herbicidal activity, morningglory. To be noted: 2 lb/A; for pest or weed control at 2241.7 g/ha: Ipomoea, post-emergence, 336 h. The procedure: as §1, §2
Assay [12] concerns wild oats (Avena fatua). Put plainly: Preemergence herbicidal activity, wild oats. The conditions noted are these: Pre, 2 lb/A; for pest or weed control at 2241.7 g/ha: Avena fatua, pre-emergence, 336 h, read-out: % control, Wild oat. On the procedure: as §1, §2
Assay [13] concerns wild oats (Avena fatua). As to the kind of experiment: Postemergence herbicidal activity, wild oats. The conditions noted are these: Post, 2 lb/A; for pest or weed control at 2241.7 g/ha: Avena fatua, post-emergence, 336 h, read-out: % control, Wild oat. On the procedure:
as §1, §2

Assay [14] concerns tomato (Lycopersicon esculentum). As to the kind of experiment: Postemergence herbicidal activity, tomato. To be noted: Post, 2 lb/A; for pest or weed control at 2241.7 g/ha: Solanum lycopersicum, post-emergence, 336 h. The procedure: as §1, §2
Assay [15] has as its system yellow nutsedge (Cyperus esculentus). Put plainly: Postemergence herbicidal activity, yellow nutsedge. The conditions noted are these: Cyperus, post-emergence, 336 h, 2 lb/A. The procedure:
as §1, §2

Assay [16] deals with morningglory (Ipomoca spp.). As to the kind of experiment: Preemergence herbicidal activity, morningglory. The conditions noted are these: 2 lb/A; for pest or weed control at 2241.7 g/ha: Ipomoea, pre-emergence, 336 h. On the procedure:
as §1, §2

In assay [17] the test system is barnyardgrass (Echinochloa crusgalli). Put plainly: Postemergence herbicidal activity, barnyardgrass. To be noted: Echinochloa crus-galli, post-emergence, 336 h; Post, 2 lb/A. The procedure: as §1, §3
Assay [18] has as its system cocklebur (Xanthium pensylvanicum). Put plainly: Postemergence herbicidal activity, cocklebur. The conditions noted are these: 2 lb/A; for pest or weed control at 2241.7 g/ha: Xanthium strumarium, post-emergence, 336 h. On the procedure:
as §1, §2

In assay [19] the test system is velvetleaf (Abutilon theophrasti). Put plainly: Postemergence herbicidal activity, velvetleaf. The conditions noted are these: 2 lb/A; for pest or weed control at 2241.7 g/ha: Abutilon theophrasti, post-emergence, 336 h. On the procedure:
as §1, §3

The test system of assay [20] is tomato (Lycopersicon esculentum). Put plainly: Preemergence herbicidal activity, tomato. The conditions noted are these: Solanum lycopersicum, pre-emergence, 336 h; Pre, 2 lb/A. On the procedure:
as §1, §2

Structures are written as SMILES.

As to `CCOC(=O)C(C)Oc1cccc(Oc2ccc(C(F)(F)F)cc2Cl)c1` (stereo not drawn) [Example 2], the pest or weed control at 2241.7 g/ha came out at 40% in [1]; 30% in assay [2]; 100% in assay [3]; 90% with marigold (Tagetes spp.) [4]; 0% in assay [5]; 0% in assay [6]. In addition, the pest or weed control at 2241.7 g/ha with foxtail (Setaria spp.) [7] was 50%; in assay [8], 0%; in the assay with foxtail (Setaria spp.) [9], 100%; in the assay on marigold (Tagetes spp.) [10], 90%; in [11], 100%; in the assay with wild oats (Avena fatua) [12], 20%. Also, the pest or weed control at 2241.7 g/ha in the assay on wild oats (Avena fatua) [13] worked out at 50%; in assay [14] it was 100%; in assay [15], 0%; in assay [16], 0%; in [17], 60%; in assay [18], 90%. Besides, the pest or weed control at 2241.7 g/ha in [19] and in assay [20] was 100% throughout.
Consider `CCOC(=O)C(C)Oc1ccc(Sc2ccc(C(F)(F)F)cc2Cl)cc1` (stereo not drawn) [Example 3, Ethyl 2-[4-(2-Chloro-4-trifluoromethylphenylthio)phenoxy] propionate], for which the pest or weed control at 2241.7 g/ha in [1] stood at 90%; in assay [2], 95%; in [3] it was 0%; with marigold (Tagetes spp.) [4] it was 0%; in [5], 40%; in assay [6] it was 0%. The pest or weed control at 2241.7 g/ha in the assay on foxtail (Setaria spp.) [7] was found to be 100%; in assay [8], 0%; in the assay with foxtail (Setaria spp.) [9] it was 100%; in the assay with marigold (Tagetes spp.) [10], 50%; in [11], 50%; with wild oats (Avena fatua) [12], 30%. The pest or weed control at 2241.7 g/ha amounted to 99% with wild oats (Avena fatua) [13]; 70% in assay [14]; 66% in assay [15]; 0% in assay [16]; 70% in assay [17]; 20% in assay [18]. Further, the pest or weed control at 2241.7 g/ha in [19] was 70%; in assay [20], 0%.
Consider `COC(=O)C(C)Oc1ccc(Oc2ccc(C(F)(F)F)cc2Cl)cc1` (stereo not drawn) [Example 4, Methyl 2-[4-(2-chloro-4-trifluoromethylphenoxy)phenoxy] propionate], for which the pest or weed control at 2241.7 g/ha is 99% in assay [1]; 100% in assay [2]; 20% in [3]; 0% in the assay on marigold (Tagetes spp.) [4]; 0% in assay [5]; 0% in assay [6]. In addition, the pest or weed control at 2241.7 g/ha with foxtail (Setaria spp.) [7] amounted to 100%; in assay [8], 0%; in the assay with foxtail (Setaria spp.) [9], 100%; with marigold (Tagetes spp.) [10], 30%; in assay [11] it was 20%; with wild oats (Avena fatua) [12], 40%. The pest or weed control at 2241.7 g/ha with wild oats (Avena fatua) [13] was 100%; in assay [14], 60%; in assay [15] it was 0%; in [16] it was 0%; in assay [17] it was 100%; in assay [18], 100%. The pest or weed control at 2241.7 g/ha came out at 80% in assay [19] and 0% in assay [20].
Take `CCN(CC)C(=O)C(C)Oc1ccc(Oc2ccc(C(F)(F)F)cc2Cl)cc1` (stereo not drawn) [Example 5]: the pest or weed control at 2241.7 g/ha in assay [1] came to 30%; in assay [2] it was 60%; in [3], 0%; with marigold (Tagetes spp.) [4] it was 0%; in [5] it was 0%; in assay [6], 0%. The pest or weed control at 2241.7 g/ha in the assay with foxtail (Setaria spp.) [7] amounted to 90%; in assay [8] it was 0%; with foxtail (Setaria spp.) [9] it was 99%; in the assay on marigold (Tagetes spp.) [10], 0%; in [11] it was 20%; in the assay with wild oats (Avena fatua) [12], 0%. The pest or weed control at 2241.7 g/ha in the assay on wild oats (Avena fatua) [13] is 20%; in assay [14] it was 80%; in assay [15], 0%; in [16], 0%; in assay [17], 20%; in assay [18], 0%. The pest or weed control at 2241.7 g/ha in assay [19] is 20%; in [20] it was 0%.
Consider `CC(Oc1ccc(Oc2ccc(C(F)(F)F)cc2Cl)cc1)C(=O)O` (stereo not drawn) [Example 6, 2-[4-(2-Chloro-4-trifluoromethylphenoxy)phenoxy] propionic acid], for which the “% control, Downybrome” value in assay [1] was determined as 30%; in assay [5], 40%. The pest or weed control at 2241.7 g/ha in assay [2] was 100%; in [3], 0%; in the assay with marigold (Tagetes spp.) [4] it was 0%; in [6] it was 0%; in the assay on foxtail (Setaria spp.) [7], 95%; in assay [8], 0%. Further, the pest or weed control at 2241.7 g/ha is 100% with foxtail (Setaria spp.) [9], 0% in assay [15], 100% in [17] and 0% in [20]. Also, the “% control, Marigold” value in the assay on marigold (Tagetes spp.) [10] (Post) is reported as 20%. Further, the “% control, Morningglory” value in [11] (Post) came out at 40%; in assay [16] (Pre), 0%. The “% control, Wild oat” value turned out to be 20% with wild oats (Avena fatua) [12] and 95% in the assay on wild oats (Avena fatua) [13]. In addition, the “% control, Tomato” value in assay [14] stood at 80%. In assay [18] (Post), the “% control, Cocklebur” value stood at 50%. Also, the “% control, Velvetleaf” value in assay [19] (Post) is 20%.
Consider `CCOC(=O)C(C)Oc1ccc(Oc2ccc(C(F)(F)F)cc2Cl)cc1Cl` (stereo not drawn) [Example 7], for which the pest or weed control at 2241.7 g/ha (in [1]; in assay [2]; in [3]; in the assay on marigold (Tagetes spp.) [4]; in assay [5]; in assay [6]) was 0% throughout. Also, the pest or weed control at 2241.7 g/ha is 40% with foxtail (Setaria spp.) [7]; 0% in [8]; 90% in the assay on foxtail (Setaria spp.) [9]; 20% with marigold (Tagetes spp.) [10]; 100% in assay [11]; 0% in the assay on wild oats (Avena fatua) [12]. In addition, the pest or weed control at 2241.7 g/ha in the assay on wild oats (Avena fatua) [13] turned out to be 20%; in [14], 80%; in assay [15] it was 0%; in assay [16], 0%; in assay [17], 10%; in [18], 80%. For the same compound, the pest or weed control at 2241.7 g/ha in [19] came to 80%; in assay [20], 0%.
